Test system: laser-induced CNV in C57BL/6J mice
Test: Laser-induced choroidal neovascularization (CNV)
Format: in vivo, mouse
Settings: intravitreal, immediately after laser burn, 14 days, C57BL6 mice
Experimental: All animal studies were approved by the Animal Care and Use Committee of the Cleveland Clinic (IACUC number ARC-08792) and conformed to the National Institutes of Health Guide for the Care and Use of Animals in Research and the ARVO statement for the use of animals in ophthalmic and vision research. All surgery was performed under ketamine/xylazine anesthesia with maximum effort devoted to minimizing suffering. Laser photocoagulation-induced rupture of Bruch’s membrane was used to generate CNV as previously described. Briefly, 4–5 week old C57BL/6J mice were anesthetized with ketamine hydrochloride (100 mg/kg body weight) and xylazine (10 mg/kg body weight) followed by1% Tropicamide (Alcon laboratories, Inc., Fort Worth, TX) for pupillary dilation. Three burns of 532-nm diode laser photocoagulation (Oculight; Iridex, Mountain View California; 50-µm spot size, 0.1 second duration, 200 mW) were delivered to each retina using a slit lamp delivery system and a hand held coverslip as a contact lens. Burns were performed in the 9, 12 and 3 o’clock positions of the posterior pole of the retina. […] Two weeks later, mice were anesthetized and perfused with fluorescein-labeled dextran (2×10^6 average molecular weight, Sigma Aldrich), choroidal flatmounts were prepared and CNV area measured. […]
Five mice were used for each dose of peptide, with three burns in each eye (n = 15–18 successful burns in each group). For quantitative analysis of lesion intensity and size, CNV images were batch processed using a custom macro generated in Image-Pro Plus 5.1 (Media Cybernetics, Silver Spring, MD). […] Mean intensity (range between 10–255 gray levels), perimeter, area, and mean diameter (pixels) were calculated for each ROI and exported to excel. […]
Figure 7 Inhibition of laser-induced CNV by TIMP-3 peptides. […] Effect of Tail peptides on CNV was evaluated by Fluorescein angiogram and Scanning Laser Ophthalmoscopy (SLO). […] CNV lesion size (area X density) was calculated for each dose of T3N-peptide (Fig. 7g), Loop6-peptide (Fig. 7h) and Tail-peptide (fig. 7i).

| Sequence | Inhibition of laser-induced CNV (overall statement) | Inhibition of laser-induced CNV (overall statement) (listed as N-terminal) |
| --- | --- | --- |
| KIKSCYYLPCFVTS [T3-loop 5] | no angio-inhibitory activity in vitro or in vivo |  |
| RGFTKMPHVQYIHTEASESL [T3-N peptide] | not N-peptide inhibit laser-induced CNV | no angio-inhibitory activity in vitro or in vivo |

From paper PMC3585964, “Tissue Inhibitor of Metalloproteinases-3 Peptides Inhibit Angiogenesis and Choroidal Neovascularization in Mice” (PLoS ONE, 2013)
